Where two headings read alike, the source gives them in different places.

The source of these data is US20010014699A1, “Benflumetol derivatives, intermediates thereof and their use against parasitical protozoa and trematodes” (priority 1998, published 2001).

The conditions of data set [1]: cited from earlier work.
Data set [2] deals with Plasmodium falciparum isolates. Description: WHO Standard Microtest, inhibition of schizont maturation in vitro. Conditions: for power ratio (PR) between benflumetol and the compound: Litchfield & Wilcoxon comparison; for efficacy compared with benflumetol (in words): Plasmodium falciparum in vitro; for inhibition at 0.003 µM: 3.0 nmol/l; for inhibition at 0.01 µM: 10.0 nmol/l; for inhibition at 0.03 µM: 30.0 nmol/l; for inhibition at 0.1 µM: 100.0 nmol/l; for inhibition at 0.3 µM: 300.0 nmol/l; for inhibition at 1 µM: 1000.0 nmol/l; for inhibition at 3 µM: 3000.0 nmol/l; for EC50: probit analysis, 95% confidence limits. The format is cell-based. How it is done:
The study is carried out in Mae Sot, a province in north-west Thailand close to Myanmar. […] The test for efficacy is carried out with blood samples obtained by finger pricks (in accordance with the WHO Standard Microtest Method for studying the inhibition of schizont maturation, see Wemsdorfer, W. H., and Payne, D. (1988), Drug Sensitivity Tests. In: Wemsdorfer, W. H., and McGregor, I. A. (Editors), Malaria: Principles and practice of malariology; Churchill Livingstone, Edinburgh). The tests are carried out in parallel with benflumetol and the 2-alkylamino-1-[2,7-dichloro-9-(4-chlorobenzylidene]-9H-fluoren-4-yl)ethanols in concentrations between 3 and 3000 nmol/l in blood medium mixture (BMM) using materials from the WHO Standard Test Kit supplied by the WHO Regional Office for the Western Pacific, Manila, except for the predosed microtitre plates, which are prepared in the laboratory of the institute of Specific Prophylaxis and Tropical Medicine, University of Vienna, Austria.
The procedure for determining parasitaemia before incubation follows the WHO Standard Method (WHO (1991), Basic malaria microscopy. Part I; WHO, Geneva). The schizont titres are determined as described in Wemsdorfer and Payne (1988) (see above).
The statistical analysis of the data was carried out according to log-concentration/response probit analysis (Litchfield & Wilcoxon (1949), J. Exp. Pharmacol. 89, 99-113). This method is based on the least-squares procedure and is the most widely accepted method for the analysis of dose-response studies. A computer adaptation of the method (Wernsdorfer & Wernsdorfer, Mitteilungen der Österreichischen Gesellschaft für Tropenmedizin und Parasitologie 17, 221-228) is used for data processing.

For data set [3] the following is noted: cited from earlier work. The source holds these as a separate data set.
For data set [4] the following is noted: taken with foods having a high fat content; cited from earlier work.
Where [5] appears, read: Plasmodium falciparum, 34-isolate test series (Examples 6.2 and 6.3).
Setting [6] is: Plasmodium falciparum, 34-isolate test series (Examples 6.2 and 6.3), read-out: EC50: mean value.
Setting [7] is: Plasmodium falciparum, 58 isolates (Example 6.1).

Take `CO[C@H]1O[C@@H]2O[C@@]3(C)CC[C@H]4[C@H](C)CC[C@@H]([C@H]1C)[C@@]24OO3` [artemether, [3R-(3α, 5αβ, 6β, 8αβ, 9α, 10α, 12β,-12aR)]-decahydro-10-methoxy-3,6,9-trimethyl-3,12-epoxy-12H-pyrano[4,3-j]-1,2-benzodioxepin]: in data set [1] (in plasma), the half-life (as a rule, the time needed for the level to fall by half in the phase considered) was 2 h.

As for `CCCCCNCC(O)c1cc(Cl)cc2c1-c1ccc(Cl)cc1C2=Cc1ccc(Cl)cc1` (stereo not shown) [5c, 2-n-Pentylamino-1-[2,7-dichloro-9-(4-chlorobenzylidene)-9H-fluoren-4yl]ethanol], in data set [2] (34 isolates), the “EC99 of the compound, times lower than that for benflumetol” value is listed as “about 4 times”; the “concentration at which none of the isolates shows schizont maturation” value (“concentration at which none” below) was determined as 3000 nmol/L; the “power ratio (PR) between benflumetol and the compound” value was 2.0724. The “efficacy compared with benflumetol (in words)” value in data set [2] is on record as “about five times as effective as benflumetol”. Further, in data set [2] (setting [5]), the inhibition (usually the share of the control response that was lost under treatment) at 0.003 µM was determined as 6.83%, the inhibition at 0.01 µM amounted to 36.4%, the inhibition at 0.03 µM is 81.2% and the inhibition at 0.1 µM was 94.8%. Also, in data set [2] (setting [5]), the inhibition at 0.3 µM was determined as 97%, the inhibition at 1 µM came to 99.6% and the inhibition at 3 µM was 100%. Moreover, the 50% effective concentration (EC50) (in general, the concentration needed to bring the measured effect to its halfway point) in data set [2] (setting [6]) came out at 0.0144 µM. In data set [2] (at 100 nml/l, 34 isolates), this compound gave an isolates completely inhibited of 95%.

`CCCCN(CCCC)CC(O)c1cc(Cl)cc2c1-c1ccc(Cl)cc1C2=Cc1ccc(Cl)cc1` (stereo not shown) [benflumetol, 2-(di-n-butylamino)-1-[2,7-dichloro-9-(4-chlorobenzylidene)-9H-fluoren-4-yl]ethanol]: the “solubility (in words)” value in data set [3] is “not very good”. Moreover, the plasma half-life in data set [1] (in patients) is 96 to 140 h. Moreover, the “absorption with foods having a high fat content, times higher than in the absence of such fatty foods” value in data set [4] is “up to 16 times”. Further, the “concentration at which none” value in data set [2] (34 isolates) was “above 3000 nmol/l”. The “concentration at which none” value in data set [2] (58 isolates) is recorded as “above 300 nmol/l”. In data set [2] (setting [5]), this compound registered an inhibition at 0.003 µM of 7.16%, an inhibition at 0.01 µM of 18.4%, an inhibition at 0.03 µM of 42.8% and an inhibition at 0.1 µM of 90.7%. Further, in data set [2] (setting [5]), testing at 0.3 µM gave an inhibition of 96.2%, testing at 1 µM gave an inhibition of 99.9% and the inhibition at 3 µM stood at 100%. For the same compound, in data set [2] (setting [7]), testing at 0.003 µM gave an inhibition of 7.14%, the inhibition at 0.01 µM amounted to 20.4%, the inhibition at 0.03 µM was 47.2% and 0.1 µM produced 90.7% inhibition. In data set [2] (setting [7]), this compound displayed an inhibition at 0.3 µM of 99.8%, an inhibition at 1 µM of 100% and an inhibition at 3 µM of 100%. In addition, in data set [2] (setting [6]), the EC50 came out at 0.028 µM. Moreover, the EC50 in data set [2] (Plasmodium falciparum, read-out: EC50: mean value (50% inhibition versus controls not given active substance), 58 isolates (Example 6.1)) came out at 0.0244 µM. In data set [2] (at 300 nmol/l, 34 isolates), this compound had an isolates completely inhibited of 96%. In addition, the isolates completely inhibited in data set [2] (at 300 nmol/l, 58 isolates) is 97%. Also, the EC50 in data set [2] (read-out: EC50: mean value (50% inhibition versus controls not given active substance), 58 isolates (Example 6.1)) came out at 0.0244 µM.

For `CCN(CC)CCCC(C)Nc1ccnc2cc(Cl)ccc12` (stereo not shown) [Chloroquine], the “half-life (in words)” value in data set [1] (in vivo) is “very long half-life”.

Turning to `CNCC(O)c1cc(Cl)cc2c1-c1ccc(Cl)cc1C2=Cc1ccc(Cl)cc1` (stereo not shown) [5a, 2-Methylamino-1-[2,7-dichloro-9-(4-chlorobenzylidene)-9H-fluoren-4yl]ethanol], in data set [2] (34 isolates), the “EC99 of the compound as fraction of that for benflumetol” value is recorded as “about one fifth”; the “concentration at which none” value worked out at 1000 nmol/L; the “power ratio (PR) between benflumetol and the compound” value amounted to 2.8898. For the same compound, in data set [2], the “efficacy compared with benflumetol (in words)” value is on record as “about four times as effective as benflumetol”. Further, in data set [2] (setting [5]), 0.003 µM produced 13.1% inhibition, testing at 0.01 µM gave an inhibition of 51.9%, the inhibition at 0.03 µM was 83.1% and at 0.1 µM the inhibition was 95.8%. In data set [2] (setting [5]), this compound yielded an inhibition at 0.3 µM of 97.1%, an inhibition at 1 µM of 100% and an inhibition at 3 µM of 100%. Besides, the EC50 in data set [2] (setting [6]) stood at 0.0105 µM. The compound also gave an isolates completely inhibited in data set [2] (at 100 nml/l, 34 isolates) of 96%.
